As a reminder, the EC50 is the concentration giving half of the maximal effect.

In the assay the target is T1, IDO1 (Homo sapiens, UniProt P14902).
T1 construct: HeLa cells were treated with a test compound in the presence of IFNγ, which induces IDO1 expression; host or cells: H1-HeLa cells, IDO1 induced with IFNγ
T1 sequence (P14902 whole entry): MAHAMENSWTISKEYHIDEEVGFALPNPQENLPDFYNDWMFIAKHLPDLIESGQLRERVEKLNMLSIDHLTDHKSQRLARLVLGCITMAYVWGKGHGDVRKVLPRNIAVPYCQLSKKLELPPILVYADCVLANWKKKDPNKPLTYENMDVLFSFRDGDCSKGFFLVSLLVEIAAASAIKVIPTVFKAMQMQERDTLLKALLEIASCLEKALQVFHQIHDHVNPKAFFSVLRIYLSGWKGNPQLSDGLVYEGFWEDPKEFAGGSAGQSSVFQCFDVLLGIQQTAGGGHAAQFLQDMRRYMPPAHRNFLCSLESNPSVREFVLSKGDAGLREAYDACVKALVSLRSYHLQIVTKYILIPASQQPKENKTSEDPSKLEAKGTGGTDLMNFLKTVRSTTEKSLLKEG
As to the kind of experiment: Cell-based (HeLa) assay for measurement of IDO1 inhibition (kynurenine levels in supernatant after IFNγ induction). Particulars: HeLa cells, IFNγ-induced IDO1, kynurenine in supernatant after 48 hour incubation; geometric mean of a minimum of four determinations. As to the method: Example 509. Cell-Based (HeLa) Assay for Measurement of IDOL Inhibition
To measure IDO1 inhibition in tissue culture, HeLa cells were treated with a test compound in the presence of IFNγ, which induces IDO1 expression. Following incubation, cell supernatants were assayed for kynurenine levels, an indicator of IDO1 activity.
H1-HeLa cells (ATCC #CRL-1958) were seeded in 384-well plates (Greiner #82051-282) at a volume of 50 μL/well in DMEM (Corning #15-018-CM) supplemented with 10% FBS (Corning #35-011-CV) and 1% P/S/G (Corning #30-009-CL) at a density of 1,250 cells/well and incubated overnight at 37° C., 5% CO2/100% humidity. The following day, the test compounds were added in DMSO (0.5% final) at various concentrations, and IDO1 was inducibly expressed by the addition of 50 uL/well of […] of INFγ (Peprotech #300-02) in cell plating media. As a […] control, 50 uL of the cell plating media without IFNγ was added to several wells. Following a 48 hour incubation, the plates were spun down at 1,200 RPM for 5 min at 10° C. 65 μL/well of the supernatant was then transferred to new 384-well plates (Thermo #262160) that contained 10 uL/well of 30% TCA (Sigma #TO699), and the plates were sealed and incubated at 60° C. for 30 min. The plates were then centrifuged for 15 min at 2,000 RPM at 10° C. 40 μL/well of the supernatant was transferred to new 384-well plates (Thermo #262160) and was reacted with 40 μL/well of 2% (w/v) p-dimethlyaminobenzaldehyde (Sigma #156417) in glacial acetic acid (Sigma #A6283). The reaction was incubated at room temperature for 10 min and absorbance at 480 nm was read using a PerkinElmer Envision plate reader.
Data in Table 1 were normalized based on positive (−IFNγ) and negative (+IFNγ) controls and EC50 values were calculated from the fit of the dose response curves to a four-parameter equation. All EC50 values represent geometric mean values of a minimum of four determinations. These assays generally produced results within 2-fold of the reported mean.
In turn, `CCNCc1nc2c(F)c(F)cc(/C(=N/O)Nc3cccc(Cl)c3)c2[nH]1` [Example 28, N-(3-Chlorophenyl)-2-((ethylamino)methyl)-4,5-difluoro-N′-hydroxy-1H-benzo[d]imidazole-7-carboximidamide] yielded a half-maximal effective concentration (EC50) of 801 nM.

`OCc1nc2c(F)c(F)cc(/C(=N/O)Nc3cccc(Cl)c3)c2[nH]1` [Example 29, N-(3-Chlorophenyl)-4,5-difluoro-N′-hydroxy-2-(hydroxymethyl)-1H-benzo[d]imidazole-7-carboximidamide]: the EC50 stood at 1540 nM.

With `CNCc1nc2c(F)c(F)cc(/C(=N/O)Nc3cccc(Cl)c3)c2[nH]1` [Example 30, N-(3-Chlorophenyl)-4,5-difluoro-N′-hydroxy-2-((methylamino)methyl)-1H-benzo[d]imidazole-7-carboximidamide], the concentration giving a half-maximal response (EC50) came to 1110 nM.

Turning to `NCc1nc2c(F)c(F)cc(/C(=N/O)Nc3cccc(Cl)c3)c2[nH]1` [Example 31, 2-(Aminomethyl)-N-(3-chlorophenyl)-4,5-difluoro-N′-hydroxy-1H-benzo[d]imidazole-7-carboximidamide], the concentration for a half-maximal effect (EC50) is 1680 nM.

For `O/N=C(\Nc1ccc(F)c(Cl)c1)c1cc(F)c(F)c2nc(N3CCOCC3)[nH]c12` [Example 32, N-(3-Chloro-4-fluorophenyl)-4,5-difluoro-N′-hydroxy-2-morpholino-1H-benzo-[d]imidazole-7-carboximidamide], the EC50 is 9280 nM.

`CS(=O)(=O)CCNc1nc2c(F)ccc(/C(=N/O)Nc3ccc(F)c(Cl)c3)c2[nH]1` [Example 33, N-(3-Chloro-4-fluorophenyl)-4-fluoro-N′-hydroxy-2-((2-(methylsulfonyl)ethyl)amino)-1H-benzo[d]imidazole-7-carboximidamide] returned a 50% effective concentration (EC50) of 1830 nM.

`O/N=C(\Nc1ccc(F)c(Cl)c1)c1ccc(F)c2nc(NCCN3CCOCC3)[nH]c12` [Example 34, N-(3-Chloro-4-fluorophenyl)-4-fluoro-N′-hydroxy-2-((2-morpholinoethyl)amino)-1H-benzo[d]imidazole-7-carboximidamide] gave an EC50 of 6740 nM. This EC50 is about 3.7-fold higher than that of the compound before.

The compound `CS(=O)(=O)CCNc1nc2c(F)c(F)cc(/C(=N/O)Nc3ccc(F)c(Cl)c3)c2[nH]1` [Example 35, N-(3-Chloro-4-fluorophenyl)-4,5-difluoro-N′-hydroxy-2-((2-(methylsulfonyl)ethyl)amino)-1H-benzo[d]imidazole-7-carboximidamide] yielded an EC50 of 2150 nM.

`O/N=C(\Nc1ccc(F)c(Cl)c1)c1cc(F)c(F)c2nc(NCCN3CCC(F)(F)CC3)[nH]c12` [Example 36, N-(3-Chloro-4-fluorophenyl)-2-((2-(4,4-difluoropiperidin-1-yl)ethyl)amino)-4,5-difluoro-N′-hydroxy-1H-benzo[d]imidazole-7-carboximidamide] yielded an EC50 of 712 nM.

As for `CC(CN1CCOCC1)Nc1nc2c(F)c(F)cc(/C(=N/O)Nc3ccc(F)c(Cl)c3)c2[nH]1` (centres unmarked) [Example 37, N-(3-Chloro-4-fluorophenyl)-4,5-difluoro-N′-hydroxy-2-((1-morpholinopropan-2-yl)amino)-1H-benzo[d]imidazole-7-carboximidamide], the midpoint of the response, the EC50, lay at 514 nM.

The compound `CNc1nc2c(F)c(F)cc(/C(=N/O)Nc3ccc(F)c(Cl)c3)c2[nH]1` [Example 38, N-(3-Chloro-4-fluorophenyl)-4,5-difluoro-N′-hydroxy-2-(methylamino)-1H-benzo[d]imidazole-7-carboximidamide] registered an EC50 of 607 nM.

In turn, `CN(C)CCCNc1nc2c(F)c(F)cc(/C(=N/O)Nc3ccc(F)c(Cl)c3)c2[nH]1` [Example 39, N-(3-Chloro-4-fluorophenyl)-2-((3-(dimethylamino)propyl)amino)-4,5-difluoro-N′-hydroxy-1H-benzo[d]imidazole-7-carboximidamide] gave an EC50 of 473 nM. The EC50 values of the last two compounds are within 1.5-fold of each other.

For `COCCNc1nc2c(F)c(F)cc(/C(=N/O)Nc3ccc(F)c(Cl)c3)c2[nH]1` [Example 40, N-(3-Chloro-4-fluorophenyl)-4,5-difluoro-N′-hydroxy-2-((2-methoxyethyl)amino)-1H-benzo[d]imidazole-7-carboximidamide], the EC50 turned out to be 1520 nM. This EC50 is about 3.2-fold higher than that of the compound before.

`O/N=C(\Nc1ccc(F)c(Cl)c1)c1cc(F)c(F)c2nc(NCCN3CCCC3)[nH]c12` [Example 41, N-(3-Chloro-4-fluorophenyl)-4,5-difluoro-N′-hydroxy-2-((2-(pyrrolidin-1-yl)ethyl)amino)-1H-benzo[d]imidazole-7-carboximidamide] showed a 50% effective concentration (EC50) of 240 nM. This EC50 is about 6.3-fold lower than that of the compound before.

`CCN(CC)CCNc1nc2c(F)c(F)cc(/C(=N/O)Nc3ccc(F)c(Cl)c3)c2[nH]1` [Example 42, N-(3-Chloro-4-fluorophenyl)-2-((2-(diethylamino)ethyl)amino)-4,5-difluoro-N′-hydroxy-1H-benzo[d]imidazole-7-carboximidamide] returned a concentration giving a half-maximal response (EC50) of 247 nM.

`CN(C)CCNc1nc2c(F)c(F)cc(/C(=N/O)Nc3ccc(F)c(Cl)c3)c2[nH]1` [Example 43, N-(3-Chloro-4-fluorophenyl)-2-((2-(dimethylamino)ethyl)amino)-4,5-difluoro-N′-hydroxy-1H-benzo[d]imidazole-7-carboximidamide]: a half-maximal response (EC50) required 136 nM.

The compound `CN1CCCC(c2nc3c(F)c(F)cc(/C(=N/O)Nc4cccc(Cl)c4)c3[nH]2)C1` (centres unmarked) [Example 44, N-(3-Chlorophenyl)-4,5-difluoro-N′-hydroxy-2-(1-methylpiperidin-3-yl)-1H-benzo[d]imidazole-7-carboximidamide] returned a 50% effective concentration (EC50) of 1650 nM.

Take `COCCCNCc1nc2c(/C(=N/O)Nc3ccc(F)c(Cl)c3)cc(F)c(F)c2[nH]1` [Example 45, N-(3-Chloro-4-fluorophenyl)-6,7-difluoro-N′-hydroxy-2-(((3-methoxypropyl)amino)methyl)-1H-benzo[d]imidazole-4-carboximidamide]: the response was half-maximal at 1320 nM (EC50).

The compound `OCc1nc2c(/C(=N/O)Nc3ccc(F)c(Cl)c3)cc(F)c(F)c2[nH]1` [Example 46, N-(3-Chloro-4-fluorophenyl)-4,5-difluoro-N′-hydroxy-2-(hydroxymethyl)-1H-benzo[d]imidazole-7-carboximidamide] yielded a half-maximal effective concentration (EC50) of 835 nM.

As to `NCc1nc2c(/C(=N/O)Nc3ccc(F)c(Cl)c3)cc(F)c(F)c2[nH]1` [Example 47, 2-(Aminomethyl)-N-(3-chloro-4-fluorophenyl)-4,5-difluoro-N′-hydroxy-1H-benzo[d]imidazole-7-carboximidamide], the 50% effective concentration (EC50) was found to be 1080 nM. This EC50 and that of the compound before are within 1.5-fold of each other.

Turning to `CNCc1nc2c(/C(=N/O)Nc3ccc(F)c(Cl)c3)cc(F)c(F)c2[nH]1` [Example 48, N-(3-Chloro-4-fluorophenyl)-4,5-difluoro-N′-hydroxy-2-((methylamino)methyl)-1H-benzo[d]imidazole-7-carboximidamide], it took 434 nM to reach a half-maximal effect (EC50).

On to `O/N=C(\Nc1ccc(F)c(Cl)c1)c1cc(F)c(F)c2[nH]c(CNCC3CC3)nc12` [Example 49, N-(3-Chloro-4-fluorophenyl)-2-(((cyclopropylmethyl)amino)methyl)-4,5-difluoro-N′-hydroxy-1H-benzo[d]imidazole-7-carboximidamide], for which the EC50 came to 1060 nM.

The compound `CCNCc1nc2c(/C(=N/O)Nc3ccc(F)c(Cl)c3)cc(F)c(F)c2[nH]1` [Example 50, N-(3-Chloro-4-fluorophenyl)-2-((ethylamino)methyl)-6,7-difluoro-N′-hydroxy-1H-benzo[d]imidazole-4-carboximidamide] showed an EC50 of 457 nM.

Values taken from patent publication US9951065B2 (Gilead Sciences, Inc., priority 2015, dated 2018).
